Assay results published in US20250064789A1, “KETOAMIDE DERIVATIVES AND PHARMACEUTICAL USES THEREOF” (priority 2022, published 2025).

What was measured:
Format in all cases: cell-based
[1] = test system: SARS-CoV-2 (B.1.1.529) BA.1 mutant strains; assay: Antiviral activity at the cellular level by RT-qPCR in Vero E6-TMPRSS2 cells
[2] = test system: SARS-CoV-2 Alpha (B.1.1.7) mutant strains; assay: Antiviral activity by plaque method in Vero E6-TMPRSS2 cells: SARS-CoV-2 Alpha
[3] = test system: SARS-CoV-2 Beta (B.1.351) mutant strains; assay: Antiviral activity by plaque method in Vero E6-TMPRSS2 cells: SARS-CoV-2 Beta

Row | SMILES | inhibitory activity on replication of SARS-CoV-2 (B.1.1.529) in Vero E6-TMPRSS2 cells (in words) [1] | anti-viral activity, times higher than Nirmatrelvir (PF-07321332) [2] [times] | anti-viral activity, times higher than Nirmatrelvir (PF-07321332) [3] [times]
1 | COC[C@@H](NC(=O)C1CCCC(F)(F)C1)C(=O)N[C@H](Cc1ccccc1)C(=O)C(=O)NCc1nccs1 (stereo partly drawn) [Compound 398, N—((R)-1-(((R)-3,4-dioxo-1-phenyl-4-((thiazole-2-ylmethyl)amino)butan-2-yl)amino)-3-methoxy-1-oxopropan-2-yl)-3,3-difluorocyclohexane-1-formamide] | better inhibitory activity | 40.95 | 10.16
2 | COC[C@@H](NC(=O)C1CCC(F)(F)CC1)C(=O)N[C@H](Cc1ccccc1)C(=O)C(=O)NCc1nccs1 [Compound 395] | better inhibitory activity |  | 
